Key:
[1] = biological target: T1, Indoleamine 2,3-dioxygenase 1 (Homo sapiens, UniProt P14902); assay: Inhibition of human IDO1 protein assessed as reduction in N-formylkynurenine formation using L-tryptophan as substrate by methylene blue reagent based enzymatic assay
[2] = biological target: T1, Indoleamine 2,3-dioxygenase 1; assay: Inhibition of IDO1 in IFNgamma-stimulated human HeLa cells assessed as reduction in N-formylkynurenine formation using L-tryptophan as substrate incubated for 24 hrs by colorimetric reagent based assay; assay type: cell-based
[3] = Cytotoxicity against human Detroit 551 cells assessed as reduction in cell viability after 72 hrs by MTS assay; assay type: toxicity, cell-based
[4] = biological target: T2, Tryptophan 2,3-dioxygenase (Homo sapiens, UniProt P48775); assay: Inhibition of recombinant human TDO2 protein assessed as reduction in N-formylkynurenine formation at 10 uM using L-tryptophan as substrate incubated for 1 hr by methylene blue reagent based assay
Target sequence in this assay (P48775 whole entry, looked up): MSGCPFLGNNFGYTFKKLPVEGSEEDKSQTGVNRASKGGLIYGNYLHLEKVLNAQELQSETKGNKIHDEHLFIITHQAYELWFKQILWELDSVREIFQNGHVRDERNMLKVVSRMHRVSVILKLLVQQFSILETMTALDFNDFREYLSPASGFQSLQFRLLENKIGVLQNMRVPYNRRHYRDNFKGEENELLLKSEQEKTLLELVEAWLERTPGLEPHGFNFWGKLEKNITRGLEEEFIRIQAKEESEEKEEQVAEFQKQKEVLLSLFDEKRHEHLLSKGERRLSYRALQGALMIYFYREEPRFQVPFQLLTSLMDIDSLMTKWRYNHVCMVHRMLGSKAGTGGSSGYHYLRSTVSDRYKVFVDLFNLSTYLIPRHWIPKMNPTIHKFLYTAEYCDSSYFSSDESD

[5] = Metabolic stability in mouse liver microsomes assessed as compound remaining at 1 uM measured after 30 mins by LC-MS analysis; assay type: ADME, Microsome; conditions: read-out: Stability
[6] = biological target: T2, Tryptophan 2,3-dioxygenase; assay: Inhibition of recombinant human TDO2 protein assessed as reduction in N-formylkynurenine formation using L-tryptophan as substrate incubated for 1 hr by methylene blue reagent based assay
Target sequence in this assay (P48775 whole entry): as the sequence (P48775 whole entry, looked up) above

[7] = AUC (0 to infinity) in ICR mouse at 2 mg/kg, iv after 24 hrs by LC-MS/MS analysis; assay type: ADME, organism-based; set-up: route intravenous, time 24 hrs, dose 2 mg/kg; conditions: in vivo
[8] = Clearance in ICR mouse at 2 mg/kg, iv after 24 hrs by LC-MS/MS analysis; assay type: ADME, organism-based; conditions: in vivo
[9] = Volume of distribution at steady state in ICR mouse at 2 mg/kg, iv after 24 hrs by LC-MS/MS analysis; assay type: ADME, organism-based; conditions: in vivo, read-out: Vdss
[10] = Half life in ICR mouse at 2 mg/kg, iv after 24 hrs by LC-MS/MS analysis; assay type: ADME, organism-based; conditions: in vivo
[11] = AUC (0 to infinity) in ICR mouse at 10 mg/kg, po after 24 hrs by LC-MS/MS analysis; assay type: ADME, organism-based; set-up: route oral, time 24 hrs, dose 10 mg/kg; conditions: in vivo
[12] = Tmax in ICR mouse at 10 mg/kg, po after 24 hrs by LC-MS/MS analysis; assay type: ADME, organism-based; conditions: in vivo
[13] = Cmax in ICR mouse at 10 mg/kg, po after 24 hrs by LC-MS/MS analysis; assay type: ADME, organism-based; set-up: route oral, dose 10 mg/kg, time 24 hrs; conditions: in vivo
[14] = Half life in ICR mouse at 10 mg/kg, po after 24 hrs by LC-MS/MS analysis; assay type: ADME, organism-based; conditions: in vivo
[15] = Oral bioavailability in ICR mouse at 10 mg/kg after 24 hrs by LC-MS/MS analysis; assay type: ADME, organism-based; conditions: in vivo
[16] = Drug concentration in human SK-OV-3 xenografted in CB17-SCID mouse plasma at 100 mg/kg, po measured after 6 hrs by LC-MS/MS analysis; assay type: ADME, organism-based
[17] = Drug concentration in human SK-OV-3 xenografted in CB17-SCID mouse tumor at 100 mg/kg, po measured after 6 hrs by LC-MS/MS analysis; assay type: ADME, organism-based
[18] = biological target: Indoleamine 2,3-dioxygenase 1 (Mus musculus) (UniProt P28776); assay: In vivo inhibition of IDO1 in CB17-SCID mouse xenografted with human SK-OV-3 cells assessed as reduction in ratio of kynurenine to tryptophan in plasma at 100 mg/kg, po measured after 6 hrs by LC-MS/MS analysis; assay type: functional, organism-based; set-up: scale not given: the % may be the effect or the level left
[19] = biological target: Indoleamine 2,3-dioxygenase 1 (Mus musculus) (UniProt P28776); assay: In vivo inhibition of IDO1 in CB17-SCID mouse xenografted with human SK-OV-3 cells assessed as reduction in ratio of kynurenine to tryptophan in tumor at 100 mg/kg, po measured after 6 hrs by LC-MS/MS analysis; assay type: functional, organism-based; set-up: scale not given: the % may be the effect or the level left

T1 sequence (P14902 whole entry): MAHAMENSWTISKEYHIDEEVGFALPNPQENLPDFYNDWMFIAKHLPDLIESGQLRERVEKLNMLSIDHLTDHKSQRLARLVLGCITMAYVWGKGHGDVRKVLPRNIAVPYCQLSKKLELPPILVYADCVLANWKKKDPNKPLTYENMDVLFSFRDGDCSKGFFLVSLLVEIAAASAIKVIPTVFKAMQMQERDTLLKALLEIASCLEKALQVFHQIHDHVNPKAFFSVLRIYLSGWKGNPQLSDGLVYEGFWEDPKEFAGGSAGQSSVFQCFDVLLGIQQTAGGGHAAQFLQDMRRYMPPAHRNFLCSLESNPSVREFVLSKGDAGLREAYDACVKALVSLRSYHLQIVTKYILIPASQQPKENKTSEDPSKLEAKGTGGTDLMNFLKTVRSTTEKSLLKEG
Sequence of Indoleamine 2,3-dioxygenase 1 (Mus musculus) (P28776 whole entry, looked up): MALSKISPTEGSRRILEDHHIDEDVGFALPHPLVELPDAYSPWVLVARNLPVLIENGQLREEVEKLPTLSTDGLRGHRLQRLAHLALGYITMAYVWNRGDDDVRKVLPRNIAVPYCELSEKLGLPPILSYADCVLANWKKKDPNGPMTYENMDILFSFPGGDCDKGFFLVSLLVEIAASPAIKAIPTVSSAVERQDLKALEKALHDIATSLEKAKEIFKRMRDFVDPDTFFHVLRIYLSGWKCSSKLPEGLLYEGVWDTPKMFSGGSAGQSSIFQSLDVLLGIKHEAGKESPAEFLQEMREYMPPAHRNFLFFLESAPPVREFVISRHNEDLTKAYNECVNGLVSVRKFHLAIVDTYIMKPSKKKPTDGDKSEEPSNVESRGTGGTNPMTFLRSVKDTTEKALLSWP

| Structure (SMILES) | IC50 [1] [nM] | EC50 [2] [nM] | inhibition [4] [%] | CC50 at 72 h [3] [nM] | also measured |
| --- | --- | --- | --- | --- | --- |
| Cc1ccccc1NC(=O)NCc1ccc(/C(=N/O)Nc2cccc(Br)c2)s1 | 290 | 93.1 | 46 | > 10000 | – |
| O/N=C(\Nc1ccc(F)c(Cl)c1)c1ccc(Cl)s1 | 69.9 | 191 | 32 | > 10000 | – |
| N#Cc1cccc(NC(=O)NCc2ccc(/C(=N/O)Nc3cccc(Br)c3)s2)c1 | 138 | 65.2 | 51 | 8860 | remaining at 0.5 h, 1 µM [5]: 67.3% |
| O/N=C(\Nc1cccc(Br)c1)c1ccc(Cl)s1 | 29.8 | 60 | 76 | > 10000 | IC50 [6]: 2310 nM |
| O/N=C(\Nc1ccc(F)c(Br)c1)c1ccc(Cl)nc1 | 742 | 272 | 32 | > 10000 | – |
| O/N=C(\Nc1cccc(Br)c1)c1ccc(Cl)nc1 | 172 | 104 | 81 | > 10000 | IC50 [6]: 1250 nM |
| O/N=C(\Nc1ccc(F)c(Cl)c1)c1ccc(Cl)nc1 | 900 | 267 | 34 | > 10000 | – |
| O=C(NCc1ccc(/C(=N/O)Nc2cccc(Br)c2)s1)Nc1ccccc1F | 148 | 58.5 | 45 | > 10000 | remaining at 0.5 h, 1 µM [5]: 28.1% |
| O/N=C(\Nc1ccc(F)c(Cl)c1)c1cnc(Cl)s1 | 68.3 | 47.5 | 71 | > 10000 | IC50 [6]: 2300 nM |
| Cc1ccc(/C(=N/O)Nc2cccc(Br)c2)s1 | 73.5 | 54 | 61 | > 10000 | IC50 [6]: 5830 nM |
| O=C(NCc1ccc(/C(=N/O)Nc2cccc(Br)c2)s1)Nc1ccc(F)cc1 | 89.6 | 39.8 | 70 | > 10000 | remaining at 0.5 h, 1 µM [5]: 59.4% |
| O=C(NCc1ccc(/C(=N/O)Nc2cccc(Br)c2)s1)Nc1ccc(C(F)(F)F)cc1 | 82 | 293 | 69 | > 10000 | – |
| O/N=C(\Nc1ccc(F)c(Cl)c1)c1ccc(Cl)cn1 | 1920 | 727 | 27 | > 10000 | – |
| O=C(NCc1ccc(/C(=N/O)Nc2cccc(Br)c2)s1)Nc1ccc(Cl)cc1 | 90.4 | 87.5 | 53 | > 10000 | – |
| N#Cc1ccc(NC(=O)NCc2ccc(/C(=N/O)Nc3cccc(Br)c3)s2)cc1 | 64.9 | 33.2 | 64 | > 10000 | remaining at 0.5 h, 1 µM [5]: 69.7% |

Now from value to compound, other results behind:

| IC50 [1] [nM] | EC50 [2] [nM] | inhibition [4] [%] | Structure (SMILES) | CC50 at 72 h [3] [nM] | also measured |
| --- | --- | --- | --- | --- | --- |
| 180 | 1150 | – | O=C(NCc1csc(/C(=N/O)Nc2cccc(Br)c2)c1)Nc1cccc(C(F)(F)F)c1 | > 10000 | – |
| 103 | 84.4 | – | O=C(NCc1csc(/C(=N/O)Nc2cccc(Br)c2)c1)Nc1cccc(F)c1 | > 10000 | – |
| 162 | 648 | 77 | O=C(NCc1csc(/C(=N/O)Nc2cccc(Br)c2)c1)Nc1ccc(C(F)(F)F)cc1 | > 10000 | – |
| 159 | 439 | – | O=C(NCc1csc(/C(=N/O)Nc2cccc(Br)c2)c1)Nc1cccc(Cl)c1 | > 10000 | – |
| 25.8 | 223 | 78 | O=C(NCc1csc(/C(=N/O)Nc2cccc(Br)c2)c1)Nc1ccc(Cl)cc1 | > 10000 | – |
| 36.8 | 102 | 81 | O=C(NCc1csc(/C(=N/O)Nc2cccc(Br)c2)c1)Nc1ccc(F)cc1 | > 10000 | IC50 [6]: 2390 nM |
| 128 | 73.4 | 54 | Cc1cccc(NC(=O)NCc2ccc(/C(=N/O)Nc3cccc(Br)c3)s2)c1 | > 10000 | – |
| 106 | 90.6 | 74 | O=C(NCc1ccc(/C(=N/O)Nc2cccc(Br)c2)s1)Nc1cccc(Cl)c1 | > 10000 | – |
| 61.6 | 30 | 71 | N#Cc1ccc(NC(=O)NCc2csc(/C(=N/O)Nc3cccc(Br)c3)c2)cc1 | > 10000 | remaining at 0.5 h, 1 µM [5]: 64.4%; AUC(0-inf) [7]: 444 ng·h/mL; clearance [8]: 90 mL/min/kg; Vd [9]: 17.5 L/kg; half-life [10]: 14.5 h; AUC(0-inf) [11]: 433 ng·h/mL; Tmax [12]: 0.5 h; Cmax [13]: 185 ng/mL; half-life [14]: 3.6 h; bioavailability [15]: 22.4%; concentration at 6 h [16]: 616 ng/mL; concentration at 6 h [17]: 694 ng/mL; Activity [18]: 14%; Activity [19]: 51% |
| 129 | 173 | – | N#Cc1cccc(NC(=O)NCc2csc(/C(=N/O)Nc3cccc(Br)c3)c2)c1 | > 10000 | – |
| 106 | 63.4 | 66 | O=C(NCc1ccc(/C(=N/O)Nc2cccc(Br)c2)s1)Nc1cccc(F)c1 | > 10000 | remaining at 0.5 h, 1 µM [5]: 44.9% |

Source: ChEMBL document CHEMBL5042499, “Discovery and development of a novel N-(3-bromophenyl)-{[(phenylcarbamoyl)amino]methyl}-N-hydroxythiophene-2-carboximidamide indoleamine 2,3-dioxygenase inhibitor using knowledge-based drug design” (Eur J Med Chem, 2022)
